Consider 2 compounds from paper PMC4542628, “Lys39-Lysophosphatidate Carbonyl Oxygen Interaction Locks LPA1 N-terminal Cap to the Orthosteric Site and partners Arg124 During Receptor Activation” (Scientific Reports, 2015).

One assay addresses T1, LPA1 K7.36A mutant (Homo sapiens, UniProt Q92633, K294A).
T1 construct: expressed in transfected cells; host or cells: B103 rat neuroblastoma cells, electroporated with pCAGGS-HA-LPA1 mutant
The assay is described as follows: Intracellular calcium mobilization in B103 cells expressing K7.36A LPA1 mutant. The note with it: at the highest concentration tested. The format is cell-based. An excerpt:
(§1) PCXN2.1-LPA1, an expression vector for human LPA1, was kindly provided by Dr. T. Shimizu (NCGM, Tokyo) (40). The mutants of LPA1 (Lys39Ala, Arg115Ala, Arg124Ala, Asp191Ala and Lys294Ala) were generated by a two-step PCR. The cDNA of the 5′ portion of LPA1 was amplified by PCR using a forward primer containing XhoI site and reverse primers containing the sequence encoding the mutated amino acids. The 3′ portion was also amplified with forward primers containing the mutated sequence and a reverse primer containing NotI and BglII sites. All cDNAs of the LPA1 variants were amplified using a mixture of the two PCR products together with the XhoI and NotI-containing primers. The resulting 1.0 KB products were cloned into a pCRII-Topo vector for sequence analysis. The cDNA of LPA1 mutants were cut out from pCRII-Topo by XhoI and NotI, and ligated into the XhoI/NotI sites of pCAGGS-HA (41), to generate pCAGGS-HA-LPA1 mutants.
(§2) B103 rat neuroblastoma cells that lack LPA response were cultured in DMEM containing 10% fetal bovine serum at 37 °C in a 5% CO2 atmosphere. […] After 30 min, 20 μl of the LPA species at defined concentration was added followed by an immediate recording of the fluorescence using the Functional Drug Screening System/μCell (Hamamatsu Photonics K.K., Hamamatsu city, Japan). The fluorescence intensity was described as fura-2 ratio (tested value/basal value) or fold induction. […]
In general terms: A change in cytosolic calcium serves as a functional read-out for many receptors and channels.

In another assay the test system is LPA1. Also noted: method as in earlier work. To be noted: acting on LPA1; ref 31 (Williams et al.); cited from earlier work.
The next assay concerns the target T2, wildtype LPA1 (Homo sapiens, UniProt Q92633).
T2 construct: expressed in transfected cells; host or cells: B103 rat neuroblastoma cells (lack LPA response), electroporated
Put plainly: Intracellular calcium mobilization in B103 cells expressing wild-type LPA1. In kind it is cell-based.
From the text: as §1, §2

T1 sequence (Q92633 whole entry K294A): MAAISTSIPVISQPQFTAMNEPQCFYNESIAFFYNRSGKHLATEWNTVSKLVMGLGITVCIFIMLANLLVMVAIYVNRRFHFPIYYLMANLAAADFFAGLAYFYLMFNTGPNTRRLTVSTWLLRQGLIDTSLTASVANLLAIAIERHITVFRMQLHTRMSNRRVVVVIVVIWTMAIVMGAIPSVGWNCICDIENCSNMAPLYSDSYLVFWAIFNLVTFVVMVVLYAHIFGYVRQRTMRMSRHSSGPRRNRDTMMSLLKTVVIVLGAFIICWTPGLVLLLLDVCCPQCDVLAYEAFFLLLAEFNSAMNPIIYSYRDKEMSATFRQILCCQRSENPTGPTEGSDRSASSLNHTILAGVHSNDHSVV
T2 sequence (Q92633 whole entry): as the sequence (Q92633 whole entry K294A) above, with A294K counted along it

Turning to `CCCCC/C=C\C/C=C\C/C=C\C/C=C\CCCC(=O)OC[C@@H](O)COP(=O)(O)O.N` [LPA 20:4, 1-arachidonoyl-2-hydroxy-sn-glycero-3-phosphate (ammonium salt)], on LPA1 K7.36A mutant, the “intracellular calcium mobilization, Emax levels of the wildtype” value is listed as “≈ 60%”.

Broadly, the EC50 is the concentration at which the effect is half-maximal. “alkyl glycerol phosphate 18:1 [AGP (18:1)]”: the EC50 in the assay on LPA1 is 1500 nM. Further, the “potency compared with LPA (18:1), dose-response curve” value at wildtype LPA1 is on record as “right-shift in the dose-response curve”.
